Source: US5430062A, “Stilbene derivatives as anticancer agents” (priority 1993, dated 1995)
“And” between values parts separate entries of the source, which are not always exact repeats. Equal values may be shown once.

Tested on: HL-60 (TB) leukemia
Experiment: Cytotoxicity, HL-60(TB) leukemia
Settings: Hydrochloride

COc1cc(CNc2ccc(C)cc2)cc(OC)c1OC.Cl [110a, 4-Methyl-N-(3,4,5-trimethoxybenzyl)aniline Hydrochloride]
Log10 GI50, HL-60 (TB): < -7.00 and -7.05
